{"source": "paper PMC4992173", "about": "“Divergent synthesis and identification of the cellular targets of deoxyelephantopins” (Nature Communications, 2016)", "target": "T1, Thioredoxin domain-containing protein 12 (TXNDC12) (Homo sapiens, UniProt O95881)", "T1 construct": "endogenous in cells; host or cells: MCF7", "T1 sequence (O95881 27-172)": "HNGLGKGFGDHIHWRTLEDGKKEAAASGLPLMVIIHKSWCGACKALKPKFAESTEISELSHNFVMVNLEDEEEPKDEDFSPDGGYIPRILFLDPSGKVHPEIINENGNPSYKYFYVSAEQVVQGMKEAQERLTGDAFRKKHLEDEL", "assay": "SILAC competitive profiling with probe 24c in MCF7 lysates: TXNDC12", "format": "binding", "details": "1 h, then 10 µM 24c", "description": "In our efforts to determine the direct molecular targets of deoxyelephantopin we first performed a gel-based competitive in situ proteomic profiling assay[41] […] While the greater conformational flexibility of probe 24c could potentially lead to more promiscuous target engagement relatively to deoxyelephantopin, it was favoured based on the fact that an alkyne moiety appended to the rigid scaffold of deoxyelephantopin may hinder some of its interactions. MCF7 cells were pretreated with various concentrations of deoxyelephantopin for 4 h, harvested, lysed and the lysates were treated with the fluorogenic probe 24c-Cy3 (10 μM; Supplementary Fig. 10). […] Furthermore, cells were pretreated with 20 μM concentration of deoxyelephantopin or 24c and the proteomic profiles were compared (Fig. 6b, Supplementary Fig. 11). Multiple bands were detected that were equally competed by both DEP and 24c, thus again confirming that 24c can be used as an acceptable clickable analogue of deoxyelephantopin in pulldown assays. Having established the optimal labelling conditions by SDS–PAGE, we next carried out a mass spectrometry-based competitive profiling assay[42] coupled with the method of stable isotope labelling of amino acids in culture (SILAC)[43]. […]\nvisualization were performed as described above. Images were quantified with ImageJ and kinetics values were calculated using GraphPad Prism (V6.03). […]"}
{"smiles": "C=C(C)C(=O)O[C@H]1CC2=C[C@@H](C/C(C)=C/[C@H]3OC(=O)C(=C)[C@H]13)OC2=O", "note": "[deoxyelephantopin]", "values": [{"measurement": "SILAC ratio 20 µM Deoxyelephantopin/DMSO with 24c", "value": 0.12}]}
